Data published in patent US20250230193A1, “CYCLIC COMPOUND HAVING SELECTIVE KRAS INHIBITORY EFFECT ON HRAS AND NRAS” (CHUGAI SEIYAKU KABUSHIKI KAISHA, priority 2022, published 2025).
Like-named read-outs stand apart in the source and are kept apart here.

What was measured:
[1] = molecular target: GDP-bound NRAS wild-type protein (Homo sapiens, UniProt P01111); assay: Binding to NRAS by surface plasmon resonance (SPR), Single Cycle Kinetics
[2] = molecular target: GDP-bound HRAS wild-type protein (Homo sapiens, UniProt P01112); assay: Binding to HRAS by surface plasmon resonance (SPR), Single Cycle Kinetics
[3] = system: human lung cancer strain NCI-H441
[4] = GDP-bound NRAS wild-type vs GDP-bound KRAS wild-type, SPR
[5] = GDP-bound HRAS wild-type vs GDP-bound KRAS wild-type, SPR
[6] = read-out: NCI-H441 IC50, NCI-H441 cells, 4 days, CellTiter-Glo
[7] = SPR, GDP-bound wild-type proteins

Chain of GDP-bound HRAS wild-type protein (P01112 whole entry): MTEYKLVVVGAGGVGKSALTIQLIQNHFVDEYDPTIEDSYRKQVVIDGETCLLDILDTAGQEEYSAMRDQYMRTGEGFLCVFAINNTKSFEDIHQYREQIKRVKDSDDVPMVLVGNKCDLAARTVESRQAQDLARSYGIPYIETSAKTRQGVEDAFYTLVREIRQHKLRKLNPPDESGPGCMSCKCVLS
Chain of GDP-bound NRAS wild-type protein (P01111 whole entry): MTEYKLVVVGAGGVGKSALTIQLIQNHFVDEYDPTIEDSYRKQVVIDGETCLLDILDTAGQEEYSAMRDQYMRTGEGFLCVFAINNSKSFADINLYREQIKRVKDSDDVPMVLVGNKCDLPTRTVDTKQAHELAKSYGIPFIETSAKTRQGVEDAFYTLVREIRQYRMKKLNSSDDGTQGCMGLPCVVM

IC50 [3] [nM]	SMILES	NRAS/KRAS (ratio of KD value for NRAS to KD value for KRAS) [1, 4]	HRAS/KRAS (ratio of KD value for HRAS to KD value for KRAS) [2, 5]	also measured
5	CCC[C@H]1C(=O)N[C@@H]([C@@H](C)CC)C(=O)N(C)CC(=O)N(C)[C@H]2C/C=C\CCN(C2=O)[C@@H](Cc2ccc(C(F)(F)F)cc2)C(=O)N(C)CC(=O)N[C@@H](CCc2ccc(C(F)(F)F)c(OC)c2)C(=O)N2C[C@H](OCC)C[C@H]2C(=O)NC2(CC(C)(C)C2)C(=O)N(C)[C@@H](C2CCCC2)C(=O)N(C)[C@H](C(=O)N(C)CC)CC(=O)N1C [PP1676]	A (a compound having 10 or more and less than 20 is denoted as A)	A (a compound having 10 or more and less than 20 is denoted as A)	–
3.4	C#CC[C@H]1C(=O)N[C@@H]([C@@H](C)CC)C(=O)N(C)CC(=O)N(C)[C@H]2C/C=C\CCN(C2=O)[C@@H](Cc2ccc(C(F)(F)F)cc2)C(=O)N(C)CC(=O)N[C@@H](CCc2ccc(C(F)(F)F)c(OC)c2)C(=O)N2C[C@H](OCC)C[C@H]2C(=O)NC2(CC(C)(C)C2)C(=O)N(C)[C@@H](C2CCCC2)C(=O)N(C)[C@H](C(=O)N(C)C)CC(=O)N1C [PP1677]	A (a compound having 10 or more and less than 20 is denoted as A)	A (a compound having 10 or more and less than 20 is denoted as A)	–
5.6	CCO[C@@H]1C[C@H]2C(=O)NC3(CC(C)(C)C3)C(=O)N(C)[C@@H](C3CCCC3)C(=O)N(C)[C@H](C(=O)N(C)CC)CC(=O)N(C)[C@@H](CC3CC3)C(=O)N[C@@H]([C@@H](C)CC)C(=O)N(C)CC(=O)N(C)[C@H]3C/C=C\CCN(C3=O)[C@@H](Cc3ccc(C(F)(F)F)cc3)C(=O)N(C)CC(=O)N[C@@H](CCc3ccc(C(F)(F)F)c(OC)c3)C(=O)N2C1 [PP1678]	A (a compound having 10 or more and less than 20 is denoted as A)	B (a compound having 3 or more and less than 10 is denoted as B)	–
6.7	CCCN(C)C(=O)[C@@H]1CC(=O)N(C)[C@@H](COC)C(=O)N[C@@H]([C@@H](C)CC)C(=O)N(C)CC(=O)N(C)[C@H]2C/C=C\CCN(C2=O)[C@@H](Cc2ccc(C(F)(F)F)cc2)C(=O)N(C)CC(=O)N[C@@H](CCc2cc(F)c(C(F)(F)F)c(F)c2)C(=O)N2C[C@H](OCC)C[C@H]2C(=O)NC2(CCC2)C(=O)N(C)[C@@H](C2CCCC2)C(=O)N1C [PP1706]	A (a compound having 10 or more and less than 20 is denoted as A)	A (a compound having 10 or more and less than 20 is denoted as A)	–
22.4	CC[C@H](C)[C@@H]1NC(=O)[C@H](C2CC2)N(C)C(=O)C[C@@H](C(=O)N(C)C)N(C)C(=O)[C@H](C2CCCC2)N(C)C(=O)C2(CCCC2)N(C)C(=O)[C@@H]2CCCN2C(=O)[C@H](CCc2cc(F)c(C(F)(F)F)c(F)c2)NC(=O)CN(C)C(=O)[C@H](Cc2ccc(C)cc2)N2CC/C=C\C[C@@H](C2=O)N(C)C(=O)CN(C)C1=O [PP1809]	A (a compound having 10 or more and less than 20 is denoted as A)	B (a compound having 3 or more and less than 10 is denoted as B)	–
10.7	CC[C@H](C)[C@@H]1NC(=O)[C@H](CC)N(C)C(=O)C[C@@H](C(=O)N(C)CC)N(C)C(=O)[C@H](C2CCCC2)N(C)C(=O)C2(CC(C)(C)C2)NC(=O)[C@@H]2C[C@H](C)CN2C(=O)[C@H](CCc2ccc(C(F)(F)F)c(OC)c2)NC(=O)CN(C)C(=O)[C@H](Cc2ccc(C)cc2)N2CC/C=C\C[C@@H](C2=O)N(C)C(=O)CN(C)C1=O [PP1868]	A (a compound having 10 or more and less than 20 is denoted as A)	B (a compound having 3 or more and less than 10 is denoted as B)	–
8.8	CCO[C@@H]1C[C@H]2C(=O)NC3(CC(C)(C)C3)C(=O)N(C)[C@@H](C3CCCC3)C(=O)N(C)[C@H](C(=O)N(C)C)CC(=O)N(C)[C@@H](CC)C(=O)N[C@@H]([C@@H](C)CC)C(=O)N(C)CC(=O)N(C)[C@H]3C/C=C\CCN(C3=O)[C@@H](Cc3ccc(C)cc3)C(=O)N(C)CC(=O)N[C@@H](CCc3ccc(C(F)(F)F)c(Cl)c3)C(=O)N2C1 [PP1878]	A (a compound having 10 or more and less than 20 is denoted as A)	A (a compound having 10 or more and less than 20 is denoted as A)	–
6.7	CC[C@H](C)[C@@H]1NC(=O)[C@H](CC(C)C)N(C)C(=O)C[C@@H](C(=O)N(C)C)N(C)C(=O)[C@H](C2CCCC2)N(C)C(=O)C2(CC(C)(C)C2)NC(=O)[C@@H]2C[C@H](C)CN2C(=O)[C@H](CCc2ccc(C(F)(F)F)c(OC)c2)NC(=O)CN(C)C(=O)[C@H](Cc2ccc(C)cc2)N2CC/C=C\C[C@@H](C2=O)N(C)C(=O)CN(C)C1=O [PP1905]	A (a compound having 10 or more and less than 20 is denoted as A)	A (a compound having 10 or more and less than 20 is denoted as A)	–
10.1	CC[C@H](C)[C@@H]1NC(=O)[C@H](CC(C)C)N(C)C(=O)C[C@@H](C(=O)N(C)C)N(C)C(=O)[C@H](C2CCCC2)N(C)C(=O)C2(CC(C)(C)C2)NC(=O)[C@@H]2C[C@@H](C)CN2C(=O)[C@H](CCc2ccc(C(F)(F)F)c(OC)c2)NC(=O)CN(C)C(=O)[C@H](Cc2ccc(C)cc2)N2CC/C=C\C[C@@H](C2=O)N(C)C(=O)CN(C)C1=O [PP1908]	A (a compound having 10 or more and less than 20 is denoted as A)	B (a compound having 3 or more and less than 10 is denoted as B)	–
15.3	CC[C@H](C)[C@@H]1NC(=O)[C@H](CC(C)C)N(C)C(=O)C[C@@H](C(=O)N(C)CC)N(C)C(=O)[C@H](C2CCCC2)N(C)C(=O)C2(CC(C)(C)C2)NC(=O)[C@@H]2C[C@@H](C)CN2C(=O)[C@H](CCc2ccc(C(F)(F)F)c(OC)c2)NC(=O)CN(C)C(=O)[C@H](Cc2ccc(C)cc2)N2CC/C=C\C[C@@H](C2=O)N(C)C(=O)CN(C)C1=O [PP1909]	A (a compound having 10 or more and less than 20 is denoted as A)	B (a compound having 3 or more and less than 10 is denoted as B)	–
28.9	CCO[C@@H]1C[C@H]2C(=O)NC3(CCC3)C(=O)N(C)[C@@H](C3CCCC3)C(=O)N(C)[C@H](C(=O)N(C)CC)CC(=O)N(C)[C@H]3CCCCCc4ccc(cc4)C[C@@H](C(=O)N(C)CC(=O)N[C@@H](CCc4cc(F)c(C(F)(F)F)c(F)c4)C(=O)N2C1)N1CC/C=C\C[C@@H](C1=O)N(C)C(=O)CN(C)C(=O)[C@H]([C@@H](C)CC)NC3=O [PP2117]	–	–	NRAS/KRAS (ratio of KD value with respect to NRAS to KD value with respect to KRAS) ([1]; SPR, GDP-bound NRAS wild-type vs GDP-bound KRAS wild-type): A (a compound having 10 or more and less than 20 is denoted as A); HRAS/KRAS (ratio of KD value with respect to HRAS to KD value with respect to KRAS) ([2]; SPR, GDP-bound HRAS wild-type vs GDP-bound KRAS wild-type): A (a compound having 10 or more and less than 20 is denoted as A)
–	CCC[C@H]1C(=O)N[C@@H]([C@@H](C)CC)C(=O)N(C)CC(=O)N(C)[C@H]2C/C=C\CCN(C2=O)[C@@H](Cc2ccc(C(F)(F)F)cc2)C(=O)N(C)CC(=O)N[C@@H](CCc2cc(Cl)c3c(ccn3C)c2)C(=O)N2C[C@H](OCC)C[C@H]2C(=O)NC2(CC(C)(C)C2)C(=O)N(C)[C@@H](C(CC)CC)C(=O)N(C)[C@H](C(=O)N(C)C)CC(=O)N1C [PP2896]	–	–	NRAS/KRAS (ratio of KD value with respect to GDP-bound NRAS wild-type protein to KD value with respect to KRAS) ([1]; class symbols): A (a compound having 10 or more and less than 20 is denoted as A); HRAS/KRAS (ratio of KD value with respect to GDP-bound HRAS wild-type protein to KD value with respect to KRAS) ([2]; class symbols): A (a compound having 10 or more and less than 20 is denoted as A); IC50 [3, 6]: 79.3 nM
–	CCC(CC)[C@H]1C(=O)N(C)[C@H](C(=O)N2CCCCC2)CC(=O)N(C)[C@H]2CCC/C=C/c3ccc(cc3)C[C@@H](C(=O)N(C)CC(=O)N[C@@H](CCc3ccc(Cl)c(Cl)c3)C(=O)N3CCC[C@H]3C(=O)NC3(CC(C)(C)C3)C(=O)N1C)N1CC/C=C\C[C@@H](C1=O)N(C)C(=O)CN(C)C(=O)[C@H]([C@@H](C)CC)NC2=O [PP3055]	–	–	NRAS/KRAS (ratio of KD value with respect to GDP-bound NRAS wild-type protein to KD value with respect to KRAS) [1, 7]: AA (a compound having 20 or more is denoted as AA); HRAS/KRAS (ratio of KD value with respect to GDP-bound HRAS wild-type protein to KD value with respect to KRAS) [2, 7]: A (a compound having 10 or more and less than 20 is denoted as A); IC50 [3, 6]: 69.2 nM
–	CCO[C@@H]1C[C@H]2C(=O)NC3(CC(C)(C)C3)C(=O)N(C)[C@@H](C3CCCC3)C(=O)N(C)[C@H](C(=O)N3CCCCC3)CC(=O)N(C)[C@H]3CCCCc4ccc(cc4)C[C@@H](C(=O)N(C)CC(=O)N[C@@H](CCc4ccc(C(F)(F)F)c(OC)c4)C(=O)N2C1)N1CC/C=C\C[C@@H](C1=O)N(C)C(=O)CN(C)C(=O)[C@H]([C@@H](C)CC)NC3=O [PP3093, (1S,7S,11R,13S,19S,22S,26S,29S,35S,37Z)-19-cyclopentyl-11-ethoxy-7-[2-[3-methoxy-4-(trifluoromethyl)phenyl]ethyl]-3,3′,3′,18,21,25,31,34-octamethyl-29-[(1S)-1-methylpropyl]-22-(piperidine-1-carbonyl)spiro[3,6,9,15,18,21,25,28,31,34,41-undecazapentacyclo[24.15.9.2^43,46.1^35,41.0^9,13]tripentaconta-37,43(52),44,46(51)-tetraene-16,1′-cyclobutane]-2,5,8,14,17,20,24,27,30,33,53-undecone]	–	–	NRAS/KRAS (ratio of KD value with respect to GDP-bound NRAS wild-type protein to KD value with respect to KRAS) [1, 7]: A (a compound having 10 or more and less than 20 is denoted as A); HRAS/KRAS (ratio of KD value with respect to GDP-bound HRAS wild-type protein to KD value with respect to KRAS) [2, 7]: A (a compound having 10 or more and less than 20 is denoted as A); IC50 [3, 6]: 3.2 nM
